In ChEMBL document CHEMBL3621135 (ACS Med Chem Lett, 2015):
The source made the active and inactive calls. The calls are words filed in the database; no cut-off is given here.

Legend:
[1] = Half in human liver microsomes; type: ADME
Mus musculus [2] = assay: Inhibition of JAK2 in mouse pharamcodynamic model assessed as reduction in STAT5 phosphorylation at 10 mg/kg, po measured up to 18 hrs; type: functional
[3] = AUC (0 to 72 hrs) in rat; type: ADME, organism-based; design: time < 72 hr; conditions: in vivo
[4] = Inhibition of calcium channel (unknown origin) by patch clamp assay; design: species or system Homo sapiens
[5] = molecular target: Tyrosine-protein kinase JAK1 (Homo sapiens, UniProt P23458); assay: Binding affinity to JAK1 (unknown origin) assessed as dissociation constant
Tyrosine-protein kinase JAK1, sequence (P23458 whole entry): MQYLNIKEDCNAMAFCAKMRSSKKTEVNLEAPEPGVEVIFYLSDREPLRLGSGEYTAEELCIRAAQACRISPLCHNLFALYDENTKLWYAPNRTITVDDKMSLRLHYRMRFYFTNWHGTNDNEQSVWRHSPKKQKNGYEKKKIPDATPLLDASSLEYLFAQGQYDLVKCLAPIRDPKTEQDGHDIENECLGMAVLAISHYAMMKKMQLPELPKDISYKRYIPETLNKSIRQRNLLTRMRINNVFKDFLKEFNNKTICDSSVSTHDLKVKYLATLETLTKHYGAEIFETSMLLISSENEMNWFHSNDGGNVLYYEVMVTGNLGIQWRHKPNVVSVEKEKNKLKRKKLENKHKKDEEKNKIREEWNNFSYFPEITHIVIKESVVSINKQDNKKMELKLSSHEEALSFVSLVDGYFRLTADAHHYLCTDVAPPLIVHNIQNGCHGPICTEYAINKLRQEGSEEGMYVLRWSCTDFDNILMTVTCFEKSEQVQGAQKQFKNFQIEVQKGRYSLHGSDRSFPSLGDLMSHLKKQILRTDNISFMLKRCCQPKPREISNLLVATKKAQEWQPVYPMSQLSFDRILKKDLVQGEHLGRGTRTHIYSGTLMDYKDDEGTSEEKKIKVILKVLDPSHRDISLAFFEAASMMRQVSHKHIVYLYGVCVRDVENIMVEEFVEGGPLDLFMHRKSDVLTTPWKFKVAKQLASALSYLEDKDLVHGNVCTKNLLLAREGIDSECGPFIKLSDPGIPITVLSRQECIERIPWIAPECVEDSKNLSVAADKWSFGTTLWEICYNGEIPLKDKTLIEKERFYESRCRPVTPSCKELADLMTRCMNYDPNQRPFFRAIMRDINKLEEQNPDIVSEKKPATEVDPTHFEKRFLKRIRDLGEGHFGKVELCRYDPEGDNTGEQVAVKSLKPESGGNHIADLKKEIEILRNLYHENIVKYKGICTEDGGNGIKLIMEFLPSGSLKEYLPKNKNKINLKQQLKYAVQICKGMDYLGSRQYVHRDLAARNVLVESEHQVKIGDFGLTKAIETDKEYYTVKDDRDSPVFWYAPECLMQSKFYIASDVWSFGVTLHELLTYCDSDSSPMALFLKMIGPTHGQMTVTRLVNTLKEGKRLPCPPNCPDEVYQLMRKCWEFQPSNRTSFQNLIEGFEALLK

[6] = AUC (0 to 24 hrs) in rat assessed as drug tolerability at 15 mg/kg/day for 2 weeks measured on day 14; type: ADME, organism-based; design: time < 24 hr, dose 15 mg/kg/day; conditions: in vivo
JAK3/JAK1 = JAK3/JAK1 (Homo sapiens, UniProt P23458+P52333); assay: Inhibition of JAK1/JAK3 in T cells (unknown origin) assessed as reduction in IL2-mediated cell proliferation; type: cell-based
[7] = molecular target: Non-receptor tyrosine-protein kinase TYK2 (Homo sapiens, UniProt P29597); assay: Inhibition of recombinant TYK2 (unknown origin) by scintillation counting method
[8] = Clearance in rat at 1 mg/kg, iv and 1 mg/kg, po; type: ADME, organism-based; conditions: in vivo
Rattus norvegicus [9] = assay: Toxicity in rat assessed as drug tolerability up to 100 mg/kg; type: organism-based; conditions: in vivo
[10] = Permeability of the compound in pH 7.4 solution by PAMPA method; type: physicochemical; conditions: read-out: permeability
[11] = molecular target: T1, Tyrosine-protein kinase JAK2 (Homo sapiens, UniProt O60674); assay: Inhibition of recombinant JAK2 (unknown origin) using 5-FAM-KKKKEEIYFFFG-OH substrate and ATP incubated for 180 mins by […] method
T1 sequence (O60674 whole entry): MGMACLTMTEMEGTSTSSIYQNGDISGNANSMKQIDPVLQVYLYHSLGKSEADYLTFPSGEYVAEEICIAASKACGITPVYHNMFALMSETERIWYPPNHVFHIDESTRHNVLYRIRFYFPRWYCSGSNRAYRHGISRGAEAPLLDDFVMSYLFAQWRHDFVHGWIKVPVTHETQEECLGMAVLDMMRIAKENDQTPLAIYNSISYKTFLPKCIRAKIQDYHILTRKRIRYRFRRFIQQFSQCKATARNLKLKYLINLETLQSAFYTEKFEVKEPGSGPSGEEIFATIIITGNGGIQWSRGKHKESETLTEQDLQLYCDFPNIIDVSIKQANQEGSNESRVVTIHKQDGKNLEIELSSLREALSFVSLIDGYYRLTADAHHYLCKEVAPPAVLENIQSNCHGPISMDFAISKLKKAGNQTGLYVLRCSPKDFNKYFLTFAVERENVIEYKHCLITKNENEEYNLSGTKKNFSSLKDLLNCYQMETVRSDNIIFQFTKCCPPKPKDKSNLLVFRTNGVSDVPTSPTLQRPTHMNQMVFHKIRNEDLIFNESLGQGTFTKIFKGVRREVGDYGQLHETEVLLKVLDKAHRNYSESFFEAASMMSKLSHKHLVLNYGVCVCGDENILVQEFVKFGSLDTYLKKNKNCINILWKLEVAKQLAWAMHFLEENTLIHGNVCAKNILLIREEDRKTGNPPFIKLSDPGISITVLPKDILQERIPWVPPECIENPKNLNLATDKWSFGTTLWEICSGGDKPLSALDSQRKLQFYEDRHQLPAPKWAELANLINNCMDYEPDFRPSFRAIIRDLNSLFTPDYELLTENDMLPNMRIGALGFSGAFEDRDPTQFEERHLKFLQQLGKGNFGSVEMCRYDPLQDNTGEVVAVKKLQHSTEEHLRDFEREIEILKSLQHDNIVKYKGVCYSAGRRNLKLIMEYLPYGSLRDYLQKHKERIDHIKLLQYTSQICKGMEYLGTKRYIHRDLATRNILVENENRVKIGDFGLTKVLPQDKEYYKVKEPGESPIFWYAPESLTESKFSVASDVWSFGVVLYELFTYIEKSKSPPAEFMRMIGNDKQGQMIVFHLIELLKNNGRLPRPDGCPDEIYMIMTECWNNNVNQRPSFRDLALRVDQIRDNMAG

Mus musculus [12] = assay: Oral bioavailability in mouse at 10 mg/kg; type: ADME, organism-based; conditions: in vivo
[13] = molecular target: T1, Tyrosine-protein kinase JAK2; assay: Binding affinity to JAK2 (unknown origin) assessed as dissociation constant
[14] = AUC (0 to 8 hrs) in mouse pharamcodynamic model at 30 mg/kg, po; type: ADME, organism-based; design: dose 30 mg/kg, time < 8 hr, route oral; conditions: in vivo
[15] = Clearance in cynomolgus monkey at 1 mg/kg, iv and 1 mg/kg, po; type: ADME, organism-based, Macaca fascicularis; conditions: in vivo
[16] = Antiproliferative activity against mouse CTLL-2 cells incubated for 72 hrs by [3H] thymidine incorporation assay; type: functional, cell-based
Salmonella typhimurium = assay: Mutagenicity in Salmonella typhimurium by Ames test; type: toxicity, organism-based; conditions: salmonella enterica subsp. enterica serovar typhimurium
MIA PaCa-2 = assay: Antiproliferative activity against human MIAPaCa2 cells incubated for 72 hrs by [3H] thymidine incorporation assay; type: functional, cell-based
[17] = Volume of distribution at steady state in rat at 1 mg/kg, iv and 1 mg/kg, po; type: ADME, organism-based; conditions: in vivo, read-out: Vdss
[18] = Volume of distribution at steady state in cynomolgus monkey at 1 mg/kg, iv and 1 mg/kg, po; type: ADME, organism-based, Macaca fascicularis; conditions: in vivo, read-out: Vdss
Rattus norvegicus [19] = assay: Reduction in reticulocytes in rat at 15 mg/kg/day for 2 weeks; type: functional, organism-based
[20] = molecular target: T2, Nuclear receptor subfamily 1 group I member 2 (Homo sapiens, UniProt O75469); assay: Activation of PXR (unknown origin); type: ADME
T2 sequence (O75469 whole entry): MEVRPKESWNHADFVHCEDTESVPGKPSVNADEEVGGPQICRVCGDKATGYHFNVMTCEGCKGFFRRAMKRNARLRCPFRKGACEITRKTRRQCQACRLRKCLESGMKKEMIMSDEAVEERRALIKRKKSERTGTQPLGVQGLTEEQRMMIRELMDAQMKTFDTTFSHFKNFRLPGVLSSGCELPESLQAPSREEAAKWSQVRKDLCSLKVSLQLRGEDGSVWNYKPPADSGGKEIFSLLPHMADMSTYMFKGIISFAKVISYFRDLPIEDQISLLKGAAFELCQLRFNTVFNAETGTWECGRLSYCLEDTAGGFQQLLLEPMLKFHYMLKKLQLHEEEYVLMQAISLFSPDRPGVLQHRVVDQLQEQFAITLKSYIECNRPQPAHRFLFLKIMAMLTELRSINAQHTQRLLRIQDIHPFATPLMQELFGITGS

Cytochrome P450 1A2 = molecular target: T3, Cytochrome P450 1A2 (Homo sapiens, UniProt P05177); assay: Inhibition of CYP1A2 in human liver microsomes; type: ADME
T3 sequence (P05177 whole entry): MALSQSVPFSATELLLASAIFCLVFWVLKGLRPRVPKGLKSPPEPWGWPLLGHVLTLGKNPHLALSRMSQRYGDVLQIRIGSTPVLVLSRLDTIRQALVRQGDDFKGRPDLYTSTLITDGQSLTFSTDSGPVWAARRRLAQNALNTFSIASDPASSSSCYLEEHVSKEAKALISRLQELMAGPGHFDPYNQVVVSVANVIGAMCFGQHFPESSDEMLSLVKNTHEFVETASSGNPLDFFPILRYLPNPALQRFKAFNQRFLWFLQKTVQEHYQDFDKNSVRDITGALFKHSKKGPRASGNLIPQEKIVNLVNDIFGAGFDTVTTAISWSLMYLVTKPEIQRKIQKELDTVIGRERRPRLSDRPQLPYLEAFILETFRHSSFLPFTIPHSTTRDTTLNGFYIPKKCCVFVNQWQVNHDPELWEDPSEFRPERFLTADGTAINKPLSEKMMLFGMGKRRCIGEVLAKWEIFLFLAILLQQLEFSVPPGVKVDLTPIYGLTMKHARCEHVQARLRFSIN

Mus musculus [21] = assay: Inhibition of JAK2 V617F mutant in mouse pharamcodynamic model expressing JAK2 V617F mutant assessed as reduction in STAT5 phosphorylation at 2 mg/kg, po measured up to 7 hrs; type: functional, organism-based
[22] = Half life in dog at 0.2 mg/kg, iv and 0.2 mg/kg, po; type: ADME, organism-based, Canis lupus familiaris; conditions: in vivo
Rattus norvegicus [23] = assay: Toxicity in rat assessed as drug tolerability at 15 mg/kg/day for 2 weeks; type: organism-based; conditions: in vivo, 336 h
[24] = Inhibition of CYP450 in human liver microsomes; type: ADME
[25] = Clearance in dog at 0.2 mg/kg, iv and 0.2 mg/kg, po; type: ADME, organism-based, Canis lupus familiaris; conditions: in vivo
[26] = Half life in mouse at 2 mg/kg, iv and 10 mg/kg, po; type: ADME, organism-based; conditions: in vivo
[27] = AUC (0 to 8 hrs) in mouse pharamcodynamic model at 5 mg/kg, po; type: ADME, organism-based; design: dose 5 mg/kg, time < 8 hr, route oral; conditions: in vivo
[28] = Toxicity against human HepG2 cells; type: cell-based
hERG = hERG (Homo sapiens, UniProt Q12809); assay: Inhibition of human ERG channel at 30 uM
hERG, sequence (Q12809 whole entry): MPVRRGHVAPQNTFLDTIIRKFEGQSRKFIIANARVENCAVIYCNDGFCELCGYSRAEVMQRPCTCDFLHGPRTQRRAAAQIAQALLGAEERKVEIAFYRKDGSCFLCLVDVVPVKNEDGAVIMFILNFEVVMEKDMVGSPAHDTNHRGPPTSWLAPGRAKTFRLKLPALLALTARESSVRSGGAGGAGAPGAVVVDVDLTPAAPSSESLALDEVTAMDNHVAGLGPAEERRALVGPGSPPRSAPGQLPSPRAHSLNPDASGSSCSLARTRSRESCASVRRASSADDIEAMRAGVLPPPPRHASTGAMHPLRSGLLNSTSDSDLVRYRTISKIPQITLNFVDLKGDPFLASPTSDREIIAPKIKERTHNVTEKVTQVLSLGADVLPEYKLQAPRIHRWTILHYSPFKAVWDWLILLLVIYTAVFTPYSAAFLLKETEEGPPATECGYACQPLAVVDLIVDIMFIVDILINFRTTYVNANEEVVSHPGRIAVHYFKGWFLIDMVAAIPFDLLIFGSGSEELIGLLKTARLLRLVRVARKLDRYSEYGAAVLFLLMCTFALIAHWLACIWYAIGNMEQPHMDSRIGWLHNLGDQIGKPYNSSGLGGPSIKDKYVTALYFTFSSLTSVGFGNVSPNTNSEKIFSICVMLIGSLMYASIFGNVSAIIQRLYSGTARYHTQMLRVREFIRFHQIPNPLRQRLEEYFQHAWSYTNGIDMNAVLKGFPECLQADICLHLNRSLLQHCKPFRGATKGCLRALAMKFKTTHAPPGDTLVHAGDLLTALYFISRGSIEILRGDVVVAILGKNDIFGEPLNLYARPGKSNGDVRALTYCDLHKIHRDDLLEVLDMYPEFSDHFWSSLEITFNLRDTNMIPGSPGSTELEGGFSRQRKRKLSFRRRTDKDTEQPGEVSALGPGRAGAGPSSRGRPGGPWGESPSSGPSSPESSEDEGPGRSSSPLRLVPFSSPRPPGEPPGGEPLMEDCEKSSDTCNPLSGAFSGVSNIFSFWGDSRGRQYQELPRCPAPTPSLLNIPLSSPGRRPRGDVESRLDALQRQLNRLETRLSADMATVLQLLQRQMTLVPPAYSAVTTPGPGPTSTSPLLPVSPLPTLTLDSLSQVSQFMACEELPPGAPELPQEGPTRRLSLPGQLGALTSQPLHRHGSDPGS

[29] = molecular target: Tyrosine-protein kinase JAK2 (Mus musculus, UniProt Q62120); assay: Inhibition of JAK2 in mouse BAF3 cells assessed as reduction in STAT5 phosphorylation incubated for 2 hrs by Western blot method; type: cell-based
Tyrosine-protein kinase JAK2 (Mus musculus, UniProt Q62120), sequence (Q62120 whole entry): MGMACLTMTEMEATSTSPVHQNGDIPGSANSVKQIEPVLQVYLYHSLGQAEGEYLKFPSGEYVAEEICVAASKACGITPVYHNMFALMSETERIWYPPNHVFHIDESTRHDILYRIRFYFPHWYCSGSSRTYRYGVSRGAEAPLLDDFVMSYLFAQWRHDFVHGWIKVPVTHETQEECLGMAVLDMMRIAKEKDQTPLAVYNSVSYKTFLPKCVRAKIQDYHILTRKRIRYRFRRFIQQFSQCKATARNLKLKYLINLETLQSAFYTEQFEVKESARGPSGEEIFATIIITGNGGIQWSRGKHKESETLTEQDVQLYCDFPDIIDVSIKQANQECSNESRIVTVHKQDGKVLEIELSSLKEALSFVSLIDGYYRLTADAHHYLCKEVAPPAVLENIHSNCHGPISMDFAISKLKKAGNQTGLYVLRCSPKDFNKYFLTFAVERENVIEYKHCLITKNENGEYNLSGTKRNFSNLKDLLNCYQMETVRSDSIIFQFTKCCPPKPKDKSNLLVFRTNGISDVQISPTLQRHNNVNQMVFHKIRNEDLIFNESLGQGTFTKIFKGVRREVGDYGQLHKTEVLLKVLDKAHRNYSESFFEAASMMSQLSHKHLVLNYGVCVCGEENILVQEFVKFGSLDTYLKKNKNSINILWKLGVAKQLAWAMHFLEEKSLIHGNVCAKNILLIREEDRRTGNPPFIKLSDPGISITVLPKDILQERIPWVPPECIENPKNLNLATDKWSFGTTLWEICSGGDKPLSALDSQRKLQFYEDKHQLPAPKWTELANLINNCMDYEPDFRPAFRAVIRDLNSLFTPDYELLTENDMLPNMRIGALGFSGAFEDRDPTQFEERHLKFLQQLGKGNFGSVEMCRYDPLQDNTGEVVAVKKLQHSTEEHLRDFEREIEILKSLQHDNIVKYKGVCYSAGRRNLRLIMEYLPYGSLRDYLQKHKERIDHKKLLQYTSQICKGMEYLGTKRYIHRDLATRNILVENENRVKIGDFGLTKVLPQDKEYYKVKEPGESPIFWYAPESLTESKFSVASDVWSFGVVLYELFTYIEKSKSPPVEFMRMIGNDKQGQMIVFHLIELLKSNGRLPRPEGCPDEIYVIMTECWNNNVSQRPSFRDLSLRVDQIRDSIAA

[30] = Volume of distribution at steady state in mouse at 2 mg/kg, iv and 10 mg/kg, po; type: ADME, organism-based; conditions: in vivo, read-out: Vdss
A549 = assay: Antiproliferative activity against human A549 cells incubated for 72 hrs by [3H] thymidine incorporation assay; type: functional, cell-based
[31] = AUC (0 to 24 hrs) in dog; type: ADME, organism-based, Canis lupus familiaris; design: time < 24 hr; conditions: in vivo
[32] = Half life in rat at 1 mg/kg, iv and 1 mg/kg, po; type: ADME, organism-based; conditions: in vivo

CCn1c(C(=O)N(C2CC2)C2CC2)cc2c3c(ncn3C)c(Nc3cc(C)n(C)n3)nc21 [BMS-911543]
half-life [1]: 0.817 h | inhibition in vivo at 10 mg/kg (Mus musculus [2]): 65% | AUC(0-t) at 72 h [3]: 11300 µM·h | IC50 [4]: > 80 µM | Kd [5]: 0.11 µM | AUC at 24 h [6]: 3200 µM·h | IC50 (JAK3/JAK1): 0.99 µM | IC50 [7]: 0.066 µM | clearance [8]: 0.042 L/h/kg | Activity (Rattus norvegicus [9]): Non-toxic | Papp [10]: 698 nm/s | IC50 [11]: 0.0011 µM | F (Mus musculus [12]): 100% | Kd [13]: 0.00048 µM | AUC(0-t) at 8 h [14]: 109 µM·h | clearance [15]: 0.318 L/h/kg | IC50 [16]: 2.9 µM | Activity (Salmonella typhimurium): Non-toxic | Activity (MIA PaCa-2): inactive | Vd [17]: 0.3 L/kg | Vd [18]: 1.1 L/kg | Activity (Rattus norvegicus [19]): Active | EC50 [20]: > 50 µM | IC50 (Cytochrome P450 1A2): 1 µM | inhibition (Mus musculus [21]): Active | half-life [22]: 2.2 h | Activity (Rattus norvegicus [23]): Non-toxic | IC50 [24]: > 40 µM | clearance [25]: 0.39 L/h/kg | half-life [26]: 5.1 h | AUC(0-t) at 8 h [27]: 23 µM·h | IC50 [28]: > 50 µM | inhibition at 30 µM (hERG): 20% | IC50 [29]: 0.065 µM | Vd [30]: 0.26 L/kg | IC50 (A549): 2.4 µM | AUC(0-t) at 24 h [31]: 610 µM·h | half-life [32]: 5 h
